Here are results for 18 compounds from patent US11173151B2, “Substituted triazole derivatives and uses thereof” (BAYER AKTIENGESELLSCHAFT, priority 2017, dated 2021).

One experiment has as its target T1, human V2 receptor (Homo sapiens, UniProt P30518).
T1 construct: expressed in transfected cells; host or cells: CHO K1 (ATCC) expressing firefly luciferase under a CRE-responsive promoter
The experiment can be described thus: Cellular in vitro assay for determining vasopressin receptor activity, V2 receptor cell line (CHO, CRE-luciferase). The format is cell-based. The conditions noted are these: CHO cell line transfected with human V2 receptor; [Arg8]-vasopressin at EC50 concentration, 3 hours; read-out: IC50 hV2.

The target in another experiment is T2, human V1a receptor (Homo sapiens, UniProt P37288).
T2 construct: expressed in transfected cells; host or cells: CHO K1 (ATCC), also stably transfected with a modified aequorin
The experiment can be described thus: Cellular in vitro assay for determining vasopressin receptor activity, V1a receptor cell line (CHO, aequorin luminescence). The format is cell-based. The following applies: for IC50: CHO cell line transfected with human V1a receptor, [Arg]-vasopressin at EC50 concentration, read-out: IC50 hV1a; for ratio IC50 hV2/hV1a: selectivity ratio IC50 hV2 / IC50 hV1a. The essentials:
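CHO K1/aequorin cells, coelenterazine 5 μg/ml o/n; cpd 10 min; [Arg]-vasopressin at EC50; luminescence read immediately; IC50.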

T2 sequence (P37288 whole entry): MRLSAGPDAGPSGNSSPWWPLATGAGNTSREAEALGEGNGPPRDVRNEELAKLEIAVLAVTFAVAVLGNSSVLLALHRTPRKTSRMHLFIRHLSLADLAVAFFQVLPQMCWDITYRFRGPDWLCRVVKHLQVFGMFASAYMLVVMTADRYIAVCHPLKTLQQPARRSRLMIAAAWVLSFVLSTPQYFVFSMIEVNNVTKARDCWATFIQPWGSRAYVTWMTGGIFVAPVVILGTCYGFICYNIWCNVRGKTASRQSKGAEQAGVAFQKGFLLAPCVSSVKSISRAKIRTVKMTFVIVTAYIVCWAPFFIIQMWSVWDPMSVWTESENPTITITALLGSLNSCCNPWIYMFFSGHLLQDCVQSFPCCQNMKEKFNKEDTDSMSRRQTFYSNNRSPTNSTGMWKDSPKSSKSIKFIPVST
T1 sequence (P30518 whole entry): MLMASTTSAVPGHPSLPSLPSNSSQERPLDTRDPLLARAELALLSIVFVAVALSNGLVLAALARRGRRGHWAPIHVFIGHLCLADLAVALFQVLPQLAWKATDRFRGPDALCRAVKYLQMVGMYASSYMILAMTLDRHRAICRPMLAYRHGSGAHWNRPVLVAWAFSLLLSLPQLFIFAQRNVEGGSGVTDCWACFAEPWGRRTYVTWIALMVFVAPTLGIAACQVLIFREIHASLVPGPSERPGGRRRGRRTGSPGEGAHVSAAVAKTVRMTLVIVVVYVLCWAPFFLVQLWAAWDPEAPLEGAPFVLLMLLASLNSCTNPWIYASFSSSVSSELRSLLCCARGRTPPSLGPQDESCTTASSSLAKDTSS

As usually defined, the IC50 is the concentration at which inhibition is half-maximal. As for `CN(C)C1CN(C(=O)c2ccccc2-n2cnc(Cn3nc(-c4ccc(Cl)cc4)n(C[C@H](O)C(F)(F)F)c3=O)n2)C1` [Example 286, 5-(4-Chlorophenyl)-2-{[1-(2-{[3-(dimethylamino)azetidin-1-yl]carbonyl}phenyl)-1H-1,2,4-triazol-3-yl]methyl}-4-[(2S)-3,3,3-trifluoro-2-hydroxypropyl]-2,4-dihydro-3H-1,2,4-triazol-3-one], on human V2 receptor, the half-maximal inhibitory concentration (IC50) turned out to be 2500 nM. On human V1a receptor, the IC50 was 14.5 nM and the “ratio IC50 hV2/hV1a” value was 172.4.

Turning to `CC1(C)CN(C(=O)c2ccccc2-n2cnc(Cn3nc(-c4ccc(Cl)cc4)n(C[C@H](O)C(F)(F)F)c3=O)n2)CCO1` [Example 287, 5-(4-Chlorophenyl)-2-[(1-{2-[(2,2-dimethylmorpholin-4-yl)carbonyl]phenyl}-1H-1,2,4-triazol-3-yl)methyl]-4-[(2S)-3,3,3-trifluoro-2-hydroxypropyl]-2,4-dihydro-3H-1,2,4-triazol-3-one], on human V2 receptor, the half-maximal inhibitory concentration (IC50) stood at 2200 nM. In addition, on human V1a receptor, the IC50 stood at 5.7 nM and the “ratio IC50 hV2/hV1a” value is 386.0.

Regarding `CN1CCN(C(=O)c2ccccc2-n2cnc(Cn3nc(-c4ccc(Cl)cc4)n(C[C@H](O)C(F)(F)F)c3=O)n2)CC1=O` [Example 288, 4-{2-[3-({3-(4-Chlorophenyl)-5-oxo-4-[(2S)-3,3,3-trifluoro-2-hydroxypropyl]-4,5-dihydro-1H-1,2,4-triazol-1-yl}methyl)-1H-1,2,4-triazol-1-yl]benzoyl}-1-methylpiperazin-2-one], the IC50 at human V2 receptor was 4250 nM. In addition, at human V1a receptor, the IC50 was found to be 46 nM and the “ratio IC50 hV2/hV1a” value was 92.4.

As for `CN(CC1CC1)C(=O)c1ccccc1-n1cnc(Cn2nc(-c3ccc(Cl)cc3)n(C[C@H](O)C(F)(F)F)c2=O)n1` [Example 289, 2-[3-({3-(4-Chlorophenyl)-5-oxo-4-[(2S)-3,3,3-trifluoro-2-hydroxypropyl]-4,5-dihydro-1H-1,2,4-triazol-1-yl}methyl)-1H-1,2,4-triazol-1-yl]-N-(cyclopropylmethyl)-N-methylbenzamide], at human V2 receptor, the IC50 is 445 nM. In addition, at human V1a receptor, the IC50 amounted to 0.83 nM and the “ratio IC50 hV2/hV1a” value is given as 536.1.

`O=C(c1ccccc1-n1cnc(Cn2nc(-c3ccc(Cl)cc3)n(C[C@H](O)C(F)(F)F)c2=O)n1)N1CC(O)C1` [Example 290, 5-(4-Chlorophenyl)-2-[(1-{2-[(3-hydroxyazetidin-1-yl)carbonyl]phenyl}-1H-1,2,4-triazol-3-yl)methyl]-4-[(2S)-3,3,3-trifluoro-2-hydroxypropyl]-2,4-dihydro-3H-1,2,4-triazol-3-one]: on human V2 receptor, the IC50 is 845 nM. Further, at human V1a receptor, the IC50 amounted to 9.1 nM and the “ratio IC50 hV2/hV1a” value was found to be 92.9.

Turning to `O=C(c1ccccc1-n1cnc(Cn2nc(-c3ccc(Cl)cc3)n(C[C@H](O)C(F)(F)F)c2=O)n1)N1CC[C@@H](O)C1` [Example 291, 5-(4-Chlorophenyl)-2-{[1-(2-{[(3R)-3-hydroxypyrrolidin-1-yl]carbonyl}phenyl)-1H-1,2,4-triazol-3-yl]methyl}-4-[(2S)-3,3,3-trifluoro-2-hydroxypropyl]-2,4-dihydro-3H-1,2,4-triazol-3-one], the IC50 on human V2 receptor stood at 1150 nM. Besides, on human V1a receptor, the IC50 came out at 6.6 nM and the “ratio IC50 hV2/hV1a” value turned out to be 174.2.

For the compound `CC1C=CC(C)N1C(=O)c1ccccc1-n1cnc(Cn2nc(-c3ccc(Cl)cc3)n(C[C@H](O)C(F)(F)F)c2=O)n1` (stereo partly drawn) [Example 293, 5-(4-Chlorophenyl)-2-[(1-{2-[(2,5-dimethyl-2,5-dihydro-1H-pyrrol-1-yl)carbonyl]phenyl}-1H-1,2,4-triazol-3-yl)methyl]-4-[(2S)-3,3,3-trifluoro-2-hydroxypropyl]-2,4-dihydro-3H-1,2,4-triazol-3-one], the IC50 on human V2 receptor was 840 nM. Moreover, on human V1a receptor, the IC50 was found to be 4.7 nM and the “ratio IC50 hV2/hV1a” value came to 178.7.

On to `C=CCN(C)C(=O)c1ccccc1-n1cnc(Cn2nc(-c3ccc(Cl)cc3)n(C[C@H](O)C(F)(F)F)c2=O)n1` [Example 294, 2-[3-({3-(4-Chlorophenyl)-5-oxo-4-[(2S)-3,3,3-trifluoro-2-hydroxypropyl]-4,5-dihydro-1H-1,2,4-triazol-1-yl}methyl)-1H-1,2,4-triazol-1-yl]-N-methyl-N-(prop-2-en-1-yl)benzamide], for which the values for the IC50 on human V2 receptor and at human V1a receptor were 1540 nM and 2.1 nM, respectively. Also, the “ratio IC50 hV2/hV1a” value on human V1a receptor came out at 735.7.

Take `CCN(C)C(=O)c1ccccc1-n1cnc(Cn2nc(-c3ccc(Cl)cc3)n(C[C@H](O)C(F)(F)F)c2=O)n1` [Example 295, 2-[3-({3-(4-Chlorophenyl)-5-oxo-4-[(2S)-3,3,3-trifluoro-2-hydroxypropyl]-4,5-dihydro-1H-1,2,4-triazol-1-yl}methyl)-1H-1,2,4-triazol-1-yl]-N-ethyl-N-methylbenzamide]: the IC50 at human V2 receptor was found to be 77 nM. At human V1a receptor, the IC50 is 2.5 nM and the “ratio IC50 hV2/hV1a” value is 30.8.

For the compound `Cc1cccnc1NC(=O)c1ccccc1-n1cnc(Cn2nc(-c3ccc(Cl)cc3)n(C[C@H](O)C(F)(F)F)c2=O)n1` [Example 296, 2-[3-({3-(4-Chlorophenyl)-5-oxo-4-[(2S)-3,3,3-trifluoro-2-hydroxypropyl]-4,5-dihydro-1H-1,2,4-triazol-1-yl}methyl)-1H-1,2,4-triazol-1-yl]-N-(3-methylpyridin-2-yl)benzamide], at human V2 receptor, the IC50 worked out at 500 nM. On human V1a receptor, the IC50 was determined as 3.95 nM and the “ratio IC50 hV2/hV1a” value is 126.6.

As to `O=C(NCc1ccccc1)c1ccccc1-n1cnc(Cn2nc(-c3ccc(Cl)cc3)n(C[C@H](O)C(F)(F)F)c2=O)n1` [Example 299, N-Benzyl-2-[3-({3-(4-chlorophenyl)-5-oxo-4-[(2S)-3,3,3-trifluoro-2-hydroxypropyl]-4,5-dihydro-1H-1,2,4-triazol-1-yl}methyl)-1H-1,2,4-triazol-1-yl]benzamide], the IC50 on human V2 receptor was 265 nM. Moreover, on human V1a receptor, the half-maximal inhibitory concentration (IC50) amounted to 4.4 nM and the “ratio IC50 hV2/hV1a” value is recorded as 60.2.

As for `O=C(Nc1ccncc1)c1ccccc1-n1cnc(Cn2nc(-c3ccc(Cl)cc3)n(C[C@H](O)C(F)(F)F)c2=O)n1` [Example 300, 2-[3-({3-(4-Chlorophenyl)-5-oxo-4-[(2S)-3,3,3-trifluoro-2-hydroxypropyl]-4,5-dihydro-1H-1,2,4-triazol-1-yl}methyl)-1H-1,2,4-triazol-1-yl]-N-(pyridin-4-yl)benzamide], the results for the IC50 on human V2 receptor and on human V1a receptor were 670 nM and 1.02 nM, respectively. The “ratio IC50 hV2/hV1a” value on human V1a receptor turned out to be 656.9.

Regarding `O=C(NCc1ccccn1)c1ccccc1-n1cnc(Cn2nc(-c3ccc(Cl)cc3)n(C[C@H](O)C(F)(F)F)c2=O)n1` [Example 301, 2-[3-({3-(4-Chlorophenyl)-5-oxo-4-[(2S)-3,3,3-trifluoro-2-hydroxypropyl]-4,5-dihydro-1H-1,2,4-triazol-1-yl}methyl)-1H-1,2,4-triazol-1-yl]-N-(pyridin-2-ylmethyl)benzamide], the IC50 on human V2 receptor was 610 nM. Moreover, at human V1a receptor, the half-maximal inhibitory concentration (IC50) was found to be 8.75 nM and the “ratio IC50 hV2/hV1a” value is listed as 69.7.

As for `O=C(NCc1ccncc1)c1ccccc1-n1cnc(Cn2nc(-c3ccc(Cl)cc3)n(C[C@H](O)C(F)(F)F)c2=O)n1` [Example 302, 2-[3-({3-(4-Chlorophenyl)-5-oxo-4-[(2S)-3,3,3-trifluoro-2-hydroxypropyl]-4,5-dihydro-1H-1,2,4-triazol-1-yl}methyl)-1H-1,2,4-triazol-1-yl]-N-(pyridin-4-ylmethyl)benzamide], on human V2 receptor, the IC50 turned out to be 3300 nM. Moreover, on human V1a receptor, the IC50 turned out to be 3.75 nM and the “ratio IC50 hV2/hV1a” value is on record as 880.0.

Consider `O=C(Nc1ccc(F)cc1F)c1ccccc1-n1cnc(Cn2nc(-c3ccc(Cl)cc3)n(C[C@H](O)C(F)(F)F)c2=O)n1` [Example 303, 2-[3-({3-(4-Chlorophenyl)-5-oxo-4-[(2S)-3,3,3-trifluoro-2-hydroxypropyl]-4,5-dihydro-1H-1,2,4-triazol-1-yl}methyl)-1H-1,2,4-triazol-1-yl]-N-(2,4-difluorophenyl)benzamide], for which, at human V2 receptor, the IC50 came to 505 nM. Also, on human V1a receptor, the IC50 was 2.15 nM and the “ratio IC50 hV2/hV1a” value stood at 234.9.

Turning to `O=C(Nc1cc(F)ccc1F)c1ccccc1-n1cnc(Cn2nc(-c3ccc(Cl)cc3)n(C[C@H](O)C(F)(F)F)c2=O)n1` [Example 304, 2-[3-({3-(4-Chlorophenyl)-5-oxo-4-[(2S)-3,3,3-trifluoro-2-hydroxypropyl]-4,5-dihydro-1H-1,2,4-triazol-1-yl}methyl)-1H-1,2,4-triazol-1-yl]-N-(2,5-difluorophenyl)benzamide], the IC50 on human V2 receptor is 65.5 nM. In addition, at human V1a receptor, the IC50 worked out at 2.25 nM and the “ratio IC50 hV2/hV1a” value was found to be 29.1.

`O=C(Nc1ccccc1F)c1ccccc1-n1cnc(Cn2nc(-c3ccc(Cl)cc3)n(C[C@H](O)C(F)(F)F)c2=O)n1` [Example 305, 2-[3-({3-(4-Chlorophenyl)-5-oxo-4-[(2S)-3,3,3-trifluoro-2-hydroxypropyl]-4,5-dihydro-1H-1,2,4-triazol-1-yl}methyl)-1H-1,2,4-triazol-1-yl]-N-(2-fluorophenyl)benzamide]: the IC50 at human V2 receptor was found to be 54 nM. Further, on human V1a receptor, the IC50 came out at 0.97 nM and the “ratio IC50 hV2/hV1a” value was 55.7.

For `Cc1c(F)cccc1NC(=O)c1ccccc1-n1cnc(Cn2nc(-c3ccc(Cl)cc3)n(C[C@H](O)C(F)(F)F)c2=O)n1` [Example 306, 2-[3-({3-(4-Chlorophenyl)-5-oxo-4-[(2S)-3,3,3-trifluoro-2-hydroxypropyl]-4,5-dihydro-1H-1,2,4-triazol-1-yl}methyl)-1H-1,2,4-triazol-1-yl]-N-(3-fluoro-2-methylphenyl)benzamide], the half-inhibitory concentration (IC50) at human V2 receptor is 124 nM. Also, on human V1a receptor, the concentration for half-maximal inhibition (IC50) came to 1.6 nM and the “ratio IC50 hV2/hV1a” value was 77.2.
